Data as given in PubChem BioAssay (NCI).
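How tested: cells in 96-well plates exposed to compound for 48 hours at five concentrations. TGI is the concentration that stops growth completely.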

Key:
Experiment in all cases: DTP human tumour cell line panel, 48 h
SK-OV-3 ovarian = tested on: SK-OV-3 ovarian
SR leukemia = tested on: SR leukemia
KM12 colon = tested on: KM12 colon
SNB-75 CNS = tested on: SNB-75 CNS
SNB-78 CNS = tested on: SNB-78 CNS
LXFL 529 NSCLC = tested on: LXFL 529 NSCLC
M14 melanoma = tested on: M14 melanoma
UO-31 renal = tested on: UO-31 renal
HOP-92 NSCLC = tested on: HOP-92 NSCLC
DMS 114 small cell lung = tested on: DMS 114 small cell lung
RXF 393 renal = tested on: RXF 393 renal
SF-295 CNS = tested on: SF-295 CNS
SK-MEL-28 melanoma = tested on: SK-MEL-28 melanoma
UACC-257 melanoma = tested on: UACC-257 melanoma
SK-MEL-2 melanoma = tested on: SK-MEL-2 melanoma
SF-268 CNS = tested on: SF-268 CNS
NCI-H460 lung = tested on: NCI-H460 lung
HL-60(TB) leukemia = tested on: HL-60(TB) leukemia
ACHN renal = tested on: ACHN renal
K-562 leukemia = tested on: K-562 leukemia
U251 CNS = tested on: U251 CNS
HT29 colon = tested on: HT29 colon
COLO 205 colon = tested on: COLO 205 colon
UACC-62 melanoma = tested on: UACC-62 melanoma
SNB-19 CNS = tested on: SNB-19 CNS
RPMI-8226 leukemia = tested on: RPMI-8226 leukemia
HOP-62 NSCLC = tested on: HOP-62 NSCLC
OVCAR-5 ovarian = tested on: OVCAR-5 ovarian
786-0 renal = tested on: 786-0 renal
M19-MEL melanoma = tested on: M19-MEL melanoma
MALME-3M melanoma = tested on: MALME-3M melanoma
NCI-H522 lung = tested on: NCI-H522 lung
OVCAR-3 ovarian = tested on: OVCAR-3 ovarian
MOLT-4 leukemia = tested on: MOLT-4 leukemia
NCI-H23 lung = tested on: NCI-H23 lung
OVCAR-4 ovarian = tested on: OVCAR-4 ovarian
KM20L2 colon = tested on: KM20L2 colon
IGROV1 ovarian = tested on: IGROV1 ovarian
A498 renal = tested on: A498 renal
LOX IMVI melanoma = tested on: LOX IMVI melanoma
SW-620 colon = tested on: SW-620 colon
HS 578T breast = tested on: HS 578T breast
CCRF-CEM leukemia = tested on: CCRF-CEM leukemia
DU-145 prostate = tested on: DU-145 prostate
OVCAR-8 ovarian = tested on: OVCAR-8 ovarian
MCF7 breast = tested on: MCF7 breast
HCC-2998 colon = tested on: HCC-2998 colon
TK-10 renal = tested on: TK-10 renal
MDA-MB-231 breast = tested on: MDA-MB-231 breast
EKVX NSCLC = tested on: EKVX NSCLC
PC-3 prostate = tested on: PC-3 prostate
NCI-H226 lung = tested on: NCI-H226 lung
BT-549 breast = tested on: BT-549 breast
MDA-MB-435 = tested on: MDA-MB-435
CAKI-1 renal = tested on: CAKI-1 renal
MDA-N = tested on: MDA-N
SN12C renal = tested on: SN12C renal
SK-MEL-5 melanoma = tested on: SK-MEL-5 melanoma
NCI/ADR-RES ovarian = tested on: NCI/ADR-RES ovarian
HCT-116 colon = tested on: HCT-116 colon
A549 NSCLC = tested on: A549 NSCLC
SF-539 CNS = tested on: SF-539 CNS
HCT-15 colon = tested on: HCT-15 colon
T-47D breast = tested on: T-47D breast

Measured: TGI

COc1ccc2c(c1)CC[C@@H]1C2CC[C@]2(C)C(=O)N(CCN3CCCC3)C(=O)CC12 (some centres not stated)
35.7 µM: M19-MEL melanoma
57.7 µM: MOLT-4 leukemia
86.7 µM: RXF 393 renal
49.9 µM: UO-31 renal
> 100 µM: SK-OV-3 ovarian | SR leukemia | KM12 colon | SNB-78 CNS | SF-268 CNS | NCI-H460 lung | ACHN renal | U251 CNS | SNB-19 CNS | OVCAR-5 ovarian | OVCAR-3 ovarian | NCI-H23 lung | OVCAR-4 ovarian | IGROV1 ovarian | A498 renal
31.5 µM: MALME-3M melanoma
70.1 µM: K-562 leukemia
35.1 µM: UACC-62 melanoma
38.7 µM: UACC-257 melanoma
76.4 µM: DMS 114 small cell lung
89.6 µM: LXFL 529 NSCLC
87.1 µM: SNB-75 CNS
35.8 µM: 786-0 renal
81.8 µM: HOP-92 NSCLC
38.9 µM: SK-MEL-28 melanoma
37.6 µM: COLO 205 colon
34.8 µM: HT29 colon
31.1 µM: M14 melanoma
66.6 µM: HOP-62 NSCLC
45.2 µM: HL-60(TB) leukemia
42.1 µM: SF-295 CNS
52.7 µM: NCI-H522 lung
34.4 µM: RPMI-8226 leukemia
32.2 µM: SK-MEL-2 melanoma
55 µM: KM20L2 colon

Cc1ccc(N=Nc2c(O)c(S(=O)(=O)O)cc3cc(S(=O)(=O)O)ccc23)c(C)c1
not listed: SNB-78 CNS | LXFL 529 NSCLC | DMS 114 small cell lung | M19-MEL melanoma | KM20L2 colon
> 100 µM: all other assays above

COc1ccc(C2C(Cl)C(=O)N2NC(=O)c2ccccc2O)cc1 (configuration not stated)
not listed: SNB-78 CNS | ACHN renal | OVCAR-5 ovarian | 786-0 renal | A498 renal | LOX IMVI melanoma | HS 578T breast | DU-145 prostate | MCF7 breast | HCC-2998 colon | MDA-MB-231 breast | PC-3 prostate | NCI-H226 lung | BT-549 breast | MDA-MB-435 | CAKI-1 renal | MDA-N | NCI/ADR-RES ovarian | HCT-15 colon | T-47D breast
> 100 µM: all other assays above
